According to patent US7989449B2, “4,5-dihydro-oxazol-2-yl amine derivatives” (Hoffman-La Roche Inc., priority 2008, dated 2011):
Structures can show the parent of a compound that is named as a salt.

Molecular target: T1, 6his-tagged full length BACE 1 from SF9 cells (Homo sapiens, UniProt P56817)
T1 construct: 6his-tagged full length BACE 1 from SF9 cells; made in house; host or cells: Sf9 insect cells
Experiment: BACE1 MR121 protease assay
Format: biochemical
Details: 30 nM 6his-BACE-1, 300 nM substrate peptide WSEVNLDAEFRC-MR121, Na-acetate pH 4.0, fluorescence
Experimental: Assay plate: 384 well microtiter plate, Corning clear, flat bottom, non binding surface
Assaybuffer: 100 mM Na-acetate pH 4.0, 20 mM EDTA, 0.05% BSA
BACE-1: 6his-tagged full length BACE 1 from SF9 cells
Substrate peptide: WSEVNLDAEFRC-MR121
BACE1 MR121 protease assay
39 μl of a 38 nM 6his-BACE-1 solution in assay buffer (final conc. in the assay: 30 nM) were pipetted into the assay plate. 1 μl of a concentration of a potential inhibitor in dimethylsulfoxide was added to the enzyme and incubated for 10 min. Finally, 10 μl of a 1.5 μM solution of the substrate in assay buffer (final conc. in the assay: 300 nM) was added to start the enzymatic reaction. After strong mixing for 2 min the enzymatic reaction was followed by measuring the fluorescence intensity every two minutes for 15 min on a suitable fluorescence reader. […] The slope was calculated from the linear part of the kinetic as a measure of the activity of BACE-1. A range of concentrations of the potential inhibitor was used to generate data for calculating the concentration of inhibitor resulting in 50% of the effect (e.g. IC50, the concentration of the compound inhibiting the BACE-1 activity by 50%).

T1 sequence (P56817 46-501): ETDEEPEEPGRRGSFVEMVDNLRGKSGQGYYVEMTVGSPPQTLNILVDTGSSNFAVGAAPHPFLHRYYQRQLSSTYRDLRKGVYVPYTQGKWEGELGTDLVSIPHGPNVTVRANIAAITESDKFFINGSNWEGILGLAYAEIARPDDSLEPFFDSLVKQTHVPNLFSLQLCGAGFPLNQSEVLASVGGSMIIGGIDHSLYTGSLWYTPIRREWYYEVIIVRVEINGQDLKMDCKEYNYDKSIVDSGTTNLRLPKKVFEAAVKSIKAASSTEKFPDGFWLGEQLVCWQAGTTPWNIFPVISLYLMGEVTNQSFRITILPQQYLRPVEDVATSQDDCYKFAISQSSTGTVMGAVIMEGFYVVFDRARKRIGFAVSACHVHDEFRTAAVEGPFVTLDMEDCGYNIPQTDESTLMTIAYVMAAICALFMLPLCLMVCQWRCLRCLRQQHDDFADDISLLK

SMILES	IC50 [µM]
COc1ccc(F)c(-c2cc(C3(c4ccc(OC(F)F)c(C)c4)COC(N)=N3)ccc2F)c1 (racemic) [Example 123, (RS)-4-(6,2′-Difluoro-5′-methoxy-biphenyl-3-yl)-4-(4-difluoromethoxy-3-methyl-phenyl)-4,5-dihydro-oxazol-2-ylamine formate]	0.2
COc1cncc(-c2cccc(C3(c4ccc(OC)c(F)c4)COC(N)=N3)c2)c1 (racemic) [Example 92, (RS)-4-(3-Fluoro-4-methoxy-phenyl)-4-[3-(5-methoxy-pyridin-3-yl)-phenyl]-4,5-dihydro-oxazol-2-ylamine formate]	0.75
Cc1cc(C2(c3cccc(-c4cnccn4)c3)COC(N)=N2)ccc1OC(F)F (racemic) [Example 204, (RS)-4-(4-Difluoromethoxy-3-methyl-phenyl)-4-(3-pyrazin-2-yl-phenyl)-4,5-dihydro-oxazol-2-ylamine formate]	0.16
CCOc1cc(Nc2ccccc2)cc(C2(c3ccc(OC(F)F)c(C)c3)COC(N)=N2)c1 (racemic) [Example 192]	0.66
CCOc1ccc(C2(c3cccc(-c4cccc(Cl)c4)c3)COC(N)=N2)cc1C (racemic) [Example 66, (RS)-4-(3′-Chloro-biphenyl-3-yl)-4-(4-ethoxy-3-methyl-phenyl)-4,5-dihydro-oxazol-2-ylamine formate]	0.74
COc1ccc(C2(c3ccc(F)c(-c4cccnc4)c3)COC(N)=N2)cc1Cl (racemic) [Example 109, (RS)-4-(3-Chloro-4-methoxy-phenyl)-4-(4-fluoro-3-pyridin-3-yl-phenyl)-4,5-dihydro-oxazol-2-ylamine formate]	0.77
COc1ccc(C2(c3cccc(-c4cccc(Cl)c4)c3)COC(N)=N2)cc1 (racemic) [Example 14, (RS)-4-(3′-Chloro-biphenyl-3-yl)-4-(4-methoxy-phenyl)-4,5-dihydro-oxazol-2-ylamine formate]	0.81
NC1=NC(c2ccc(OC(F)F)cc2)(c2cccc(-c3cncnc3)c2)CO1 (racemic) [Example 86, (RS)-4-(4-Difluoromethoxy-phenyl)-4-(3-pyrimidin-5-yl-phenyl)-4,5-dihydro-oxazol-2-ylamine]	0.41
NC1=NC(c2cccc(-c3cncc(F)c3)c2)(c2ccc(OC(F)F)cc2F)CO1 (racemic) [Example 142, (RS)-4-(4-Difluoromethoxy-2-fluoro-phenyl)-4-[3-(5-fluoro-pyridin-3-yl)-phenyl]-4,5-dihydro-oxazol-2-ylamine formate]	0.84
COc1ccc(C2(c3cccc(-c4cccnc4F)c3)COC(N)=N2)cc1Cl (racemic) [Example 72, (RS)-4-(3-Chloro-4-methoxy-phenyl)-4-[3-(2-fluoro-pyridin-3-yl)-phenyl]-4,5-dihydro-oxazol-2-ylamine]	0.74
COc1cccc(-c2cc(C3(c4ccc(OC)c(C)c4)COC(N)=N3)ccc2F)c1 (racemic) [Example 21, (RS)-4-(6-Fluoro-3′-methoxy-biphenyl-3-yl)-4-(4-methoxy-3-methyl-phenyl)-4,5-dihydro-oxazol-2-ylamine formate]	0.794
COc1ccc(C2(c3ccc(F)c(-c4cccnc4)c3)COC(N)=N2)cc1C (racemic) [Example 24, (RS)-4-(4-Fluoro-3-pyridin-3-yl-phenyl)-4-(4-methoxy-3-methyl-phenyl)-4,5-dihydro-oxazol-2-ylamine]	0.29
COc1cncc(-c2cccc(C3(c4ccc(OC)c(Cl)c4)COC(N)=N3)c2)c1 (racemic) [Example 74, (RS)-4-(3-Chloro-4-methoxy-phenyl)-4-[3-(5-methoxy-pyridin-3-yl)-phenyl]-4,5-dihydro-oxazol-2-ylamine]	0.13
COc1ccc(C2(c3ccc(F)c(-c4cncc(F)c4)c3)COC(N)=N2)cc1Cl (racemic) [Example 112, (RS)-4-(3-Chloro-4-methoxy-phenyl)-4-[4-fluoro-3-(5-fluoro-pyridin-3-yl)-phenyl]-4,5-dihydro-oxazol-2-ylamine]	0.64
Cc1cc(C2(c3cccc(-c4cncc(C#N)c4)c3)COC(N)=N2)ccc1OC(F)F (racemic) [Example 203, (RS)-5-{3-[2-Amino-4-(4-difluoromethoxy-3-methyl-phenyl)-4,5-dihydro-oxazol-4-yl]-phenyl}-nicotinonitrile formate]	0.11
COc1cccc(-c2cccc(C3(c4ccc(OC)c(C)c4)COC(N)=N3)c2)c1 (racemic) [Example 43, (RS)-4-(3′-Methoxy-biphenyl-3-yl)-4-(4-methoxy-3-methyl-phenyl)-4,5-dihydro-oxazol-2-ylamine format]	0.68

SMILES	IC50 [µM]
COc1ccc(C2(c3cccc(-c4cncnc4)c3)COC(N)=N2)cc1Cl (racemic) [Example 73, (RS)-4-(3-Chloro-4-methoxy-phenyl)-4-(3-pyrimidin-5-yl-phenyl)-4,5-dihydro-oxazol-2-ylamine]	0.84
Cc1cc([C@]2(c3cccc(-c4cncc(Cl)c4)c3)COC(N)=N2)ccc1OC(F)F [Example 94A, (R)-4-[3-(5-Chloro-pyridin-3-yl)-phenyl]-4-(4-difluoromethoxy-3-methyl-phenyl)-4,5-dihydro-oxazol-2-ylamine]	0.04
Cc1cc(OC(F)F)ccc1C1(c2cccc(-c3cncc(F)c3)c2)COC(N)=N1 (racemic) [Example 145, (RS)-4-(4-Difluoromethoxy-2-methyl-phenyl)-4-[3-(5-fluoro-pyridin-3-yl)-phenyl]-4,5-dihydro-oxazol-2-ylamine formate]	0.72
COc1cncc(-c2cccc(C3(c4ccc(OC)c(C(F)(F)F)c4)COC(N)=N3)c2)c1 (racemic) [Example 150, formate]	0.33
CCOc1ccc(C2(c3cccc(-c4cncc(OC)c4)c3)COC(N)=N2)cc1 (racemic) [Example 83, (RS)-4-(4-Ethoxy-phenyl)-4-[3-(5-methoxy-pyridin-3-yl)-phenyl]-4,5-dihydro-oxazol-2-ylamine formate]	0.97
NC1=NC(c2ccc(OC(F)F)cc2)(c2cccc(-c3cccnc3F)c2)CO1 (racemic) [Example 89, (RS)-4-(4-Difluoromethoxy-phenyl)-4-[3-(2-fluoro-pyridin-3-yl)-phenyl]-4,5-dihydro-oxazol-2-ylamine formate]	0.35
Cc1cc(C2(c3cccc(-c4cncc(Cl)n4)c3)COC(N)=N2)ccc1OC(F)F (racemic) [Example 202, (RS)-4-[3-(6-Chloro-pyrazin-2-yl)-phenyl]-4-(4-difluoromethoxy-3-methyl-phenyl)-4,5-dihydro-oxazol-2-ylamine formate]	0.44
COc1ccc([C@@]2(c3cccc(-c4cccc(Cl)c4)c3)COC(N)=N2)cc1 [Example 39A, (R)-4-(3′-Chloro-biphenyl-3-yl)-4-(4-methoxy-phenyl)-4,5-dihydro-oxazol-2-ylamine]	0.44
COc1cncc(-c2cccc(C3(c4ccc(OC(F)F)cc4)COC(N)=N3)c2)c1 (racemic) [Example 90, (RS)-4-(4-Difluoromethoxy-phenyl)-4-[3-(5-methoxy-pyridin-3-yl)-phenyl]-4,5-dihydro-oxazol-2-ylamine formate]	0.15
COc1ccc(C2(c3ccc(F)c(-c4cc(C)cnc4F)c3)COC(N)=N2)cc1Cl (racemic) [Example 113, (RS)-4-(3-Chloro-4-methoxy-phenyl)-4-[4-fluoro-3-(2-fluoro-5-methyl-pyridin-3-yl)-phenyl]-4,5-dihydro-oxazol-2-ylamine]	0.73
COCCc1cc(Nc2ccccc2)cc(C2(c3ccc(OC)c(C)c3)COC(N)=N2)c1 (racemic) [Example 197, (RS)-4-[3-(2-Methoxy-ethyl)-5-phenylamino-phenyl]-4-(4-methoxy-3-methyl-phenyl)-4,5-dihydro-oxazol-2-ylamine]	0.53
Cc1cc(C2(c3cccc(-c4cccnc4F)c3)COC(N)=N2)ccc1OC(F)F (racemic) [Example 98, (RS)-4-(4-Difluoromethoxy-3-methyl-phenyl)-4-[3-(2-fluoro-pyridin-3-yl)-phenyl]-4,5-dihydro-oxazol-2-ylamine formate]	0.15
Cc1cnc(F)c(-c2cccc(C3(c4ccc(OC(F)F)c(C)c4)COC(N)=N3)c2)c1 (racemic) [Example 104, (RS)-4-(4-Difluoromethoxy-3-methyl-phenyl)-4-[3-(2-fluoro-5-methyl-pyridin-3-yl)-phenyl]-4,5-dihydro-oxazol-2-ylamine formate]	0.13
COc1ccc(C2(c3cccc(-c4cccc(OC)c4)c3)COC(N)=N2)cc1 (racemic) [Example 15, (RS)-4-(3′-Methoxy-biphenyl-3-yl)-4-(4-methoxy-phenyl)-4,5-dihydro-oxazol-2-ylamine formate]	0.82
Cc1cc(OC(F)F)ccc1C1(c2cccc(-c3cncc(Cl)c3)c2)COC(N)=N1 (racemic) [Example 201, (RS)-4-[3-(5-Chloro-pyridin-3-yl)-phenyl]-4-(4-difluoromethoxy-2-methyl-phenyl)-4,5-dihydro-oxazol-2-ylamine formate]	0.16
COc1cncc(-c2cc(C3(c4ccc(OC)c(C)c4)COC(N)=N3)ccc2F)c1 (racemic) [Example 51, (RS)-4-[4-Fluoro-3-(5-methoxy-pyridin-3-yl)-phenyl]-4-(4-methoxy-3-methyl-phenyl)-4,5-dihydro-oxazol-2-ylamine formate]	0.12
